Where a SMILES comes first, the peptide text is derived from it.
Tests used:
[1] = molecular target: Trypsin, from human pancreas (Homo sapiens, UniProt P07477); assay: Enzymatic assay, trypsin
[2] = molecular target: Tryptase, from human lung; assay: Enzymatic assay, tryptase; conditions: for IC50: read-out: Tryptase IC50
[3] = molecular target: T1, CathepsinG, from human neutrophils (Homo sapiens, UniProt P08311); assay: Enzymatic assay, cathepsin G; conditions: Cathepsin G IC50
T1 sequence (P08311 21-244): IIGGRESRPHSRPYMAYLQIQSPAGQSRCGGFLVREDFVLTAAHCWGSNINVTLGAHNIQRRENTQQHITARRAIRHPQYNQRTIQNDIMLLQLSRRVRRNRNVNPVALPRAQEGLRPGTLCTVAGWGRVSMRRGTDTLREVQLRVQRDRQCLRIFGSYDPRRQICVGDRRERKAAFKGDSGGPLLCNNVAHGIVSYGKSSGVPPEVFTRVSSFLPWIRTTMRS

[4] = molecular target: T2, Elastase from human neutrophils (Homo sapiens, UniProt P08246); assay: Enzymatic assay, elastase
T2 sequence (P08246 30-267): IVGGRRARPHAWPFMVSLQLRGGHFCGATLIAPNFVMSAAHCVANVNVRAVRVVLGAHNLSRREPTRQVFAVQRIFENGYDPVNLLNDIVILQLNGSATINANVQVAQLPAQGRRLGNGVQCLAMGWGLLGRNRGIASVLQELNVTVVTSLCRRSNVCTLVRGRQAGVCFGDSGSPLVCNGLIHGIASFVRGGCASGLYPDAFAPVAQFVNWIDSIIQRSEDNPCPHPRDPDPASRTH

CC[C@H](C)[C@@H]1NC(=O)[C@@H]2CCCN2C(=O)[C@H]2CCCN2C(=O)[C@H](CCCNC(=N)N)NC(=O)[C@@H]2CSSC[C@H](NC1=O)C(=O)N[C@@H]([C@@H](C)O)C(=O)N[C@@H](CCCCN)C(=O)N[C@@H](CO)C(=O)N[C@@H](CC(C)C)C(=O)N1CCC[C@H]1C(=O)N1CCC[C@H]1C(=O)N[C@@H](CCC(N)=O)C(=O)N2 [Ex. 188] (HELM PEPTIDE1{I.C.T.K.S.L.P.P.Q.C.R.[dP].P}$PEPTIDE1,PEPTIDE1,2:R3-10:R3|PEPTIDE1,PEPTIDE1,1:R1-13:R2$$$V2.0)
IC50 [1]: 34 nM
IC50 [2]: < 100 nM
IC50 [3]: 105 nM

CC(C)C[C@@H]1NC(=O)[C@@H]2CCCN2C(=O)[C@H]2CCCN2C(=O)[C@H](CCCNC(=N)N)NC(=O)[C@@H]2CSSC[C@H](NC1=O)C(=O)N[C@@H]([C@@H](C)O)C(=O)N[C@@H](CCCCN)C(=O)N[C@@H](CO)C(=O)N[C@@H](CC(C)C)C(=O)N1CCC[C@H]1C(=O)N1CCC[C@H]1C(=O)N[C@@H](CCCCN)C(=O)N2 [Ex. 191] (HELM PEPTIDE1{L.C.T.K.S.L.P.P.K.C.R.[dP].P}$PEPTIDE1,PEPTIDE1,2:R3-10:R3|PEPTIDE1,PEPTIDE1,1:R1-13:R2$$$V2.0)
IC50 [1]: 66 nM
IC50 [2]: 21 nM
IC50 [3]: 400 nM

CC(C)C[C@@H]1NC(=O)[C@H](CO)NC(=O)[C@H](CCCCN)NC(=O)[C@H]([C@@H](C)O)NC(=O)[C@@H]2CSSC[C@H](NC(=O)[C@H](CCCCN)NC(=O)[C@@H]3CCCN3C(=O)[C@@H]3CCCN3C1=O)C(=O)N[C@@H](CCCNC(=N)N)C(=O)N1CCC[C@@H]1C(=O)N1CCC[C@H]1C(=O)N[C@@H](Cc1ccc(O)cc1)C(=O)N2 [Ex. 194] (HELM PEPTIDE1{Y.C.T.K.S.L.P.P.K.C.R.[dP].P}$PEPTIDE1,PEPTIDE1,2:R3-10:R3|PEPTIDE1,PEPTIDE1,1:R1-13:R2$$$V2.0)
IC50 [1]: 431 nM
IC50 [2]: 9 nM
IC50 [3]: 1570 nM

CC[C@H](C)[C@@H]1NC(=O)[C@@H]2CCCN2C(=O)[C@@H]2CCCN2C(=O)[C@H](CC(=O)O)NC(=O)[C@H](CO)NC(=O)[C@H](CCCCN)NC(=O)[C@H]([C@@H](C)O)NC(=O)[C@@H]2CSSC[C@H](NC1=O)C(=O)N[C@@H](CO)C(=O)N1CCC[C@@H]1C(=O)N[C@@H](CC(C)C)C(=O)N[C@@H](Cc1ccccc1)C(=O)N2 [Ex. 51] (HELM PEPTIDE1{C.S.[dP].L.F.C.T.K.S.D.P.P.I}$PEPTIDE1,PEPTIDE1,1:R3-6:R3|PEPTIDE1,PEPTIDE1,1:R1-13:R2$$$V2.0)
IC50 ([4]; Elastase IC50): > 100000 nM
IC50 [3]: 91 nM

CC[C@H](C)[C@@H]1NC(=O)[C@@H]2CCCN2C(=O)[C@H]2CCCN2C(=O)[C@H](CCCNC(=N)N)NC(=O)[C@@H]2CSSC[C@H](NC1=O)C(=O)N[C@@H]([C@@H](C)O)C(=O)N[C@@H](CCCCN)C(=O)N[C@@H](CO)C(=O)N[C@@H](CC1CCCCC1)C(=O)N1CCC[C@H]1C(=O)N1CCC[C@H]1C(=O)N[C@@H]([C@@H](C)CC)C(=O)N2 [Ex. 182] (HELM PEPTIDE1{I.C.T.K.S.[Cha].P.P.I.C.R.[dP].P}$PEPTIDE1,PEPTIDE1,2:R3-10:R3|PEPTIDE1,PEPTIDE1,1:R1-13:R2$$$V2.0)
IC50 [1]: 59 nM
IC50 [2]: 39 nM
IC50 [3]: 111 nM

CC[C@H](C)[C@@H]1NC(=O)[C@@H]2CCCN2C(=O)[C@@H]2CCCN2C(=O)[C@H](CC(C)C)NC(=O)[C@H](CO)NC(=O)[C@H](CCCCN)NC(=O)[C@H]([C@@H](C)O)NC(=O)[C@@H]2CSSC[C@H](NC1=O)C(=O)N[C@@H](CCCNC(=N)N)C(=O)N1CCC[C@@H]1C(=O)N1CCC[C@H]1C(=O)N[C@@H](Cc1ccccc1)C(=O)N2 [Ex. 184] (HELM PEPTIDE1{F.C.T.K.S.L.P.P.I.C.R.[dP].P}$PEPTIDE1,PEPTIDE1,2:R3-10:R3|PEPTIDE1,PEPTIDE1,1:R1-13:R2$$$V2.0)
IC50 [1]: 48 nM
IC50 [2]: 27 nM
IC50 [3]: 221 nM

CC[C@H](C)[C@@H]1NC(=O)[C@@H]2CCCN2C(=O)[C@H]2CCCN2C(=O)[C@H](CCCNC(=N)N)NC(=O)[C@@H]2CSSC[C@H](NC1=O)C(=O)N[C@@H]([C@@H](C)O)C(=O)N[C@@H](CCCCN)C(=O)N[C@@H](CO)C(=O)N[C@@H](CC(C)C)C(=O)N1CCC[C@H]1C(=O)N1CCC[C@H]1C(=O)N[C@@H](CCCCN)C(=O)N2 [Ex. 186] (HELM PEPTIDE1{I.C.T.K.S.L.P.P.K.C.R.[dP].P}$PEPTIDE1,PEPTIDE1,2:R3-10:R3|PEPTIDE1,PEPTIDE1,1:R1-13:R2$$$V2.0)
IC50 [1]: 99 nM
IC50 [2]: 15 nM
IC50 [3]: 337 nM

CC[C@H](C)[C@@H]1NC(=O)[C@@H]2CCCN2C(=O)[C@@H]2CCCN2C(=O)[C@H](CC(=O)O)NC(=O)[C@H](CO)NC(=O)[C@H](CCCCN)NC(=O)[C@H]([C@@H](C)O)NC(=O)[C@@H]2CSSC[C@H](NC1=O)C(=O)N[C@@H](CO)C(=O)N1CCC[C@@H]1C(=O)N1CCC[C@H]1C(=O)N[C@@H](Cc1ccc(N)cc1)C(=O)N2 [Ex. 9] (HELM PEPTIDE1{[Nc1ccc(C[C@H](N[*:1])C(=O)[*:2])cc1].C.T.K.S.D.P.P.I.C.S.[dP].P}$PEPTIDE1,PEPTIDE1,2:R3-10:R3|PEPTIDE1,PEPTIDE1,1:R1-13:R2$$$V2.0)
Trypsin at 100 μM % [1]: 88.1%
Elastase at 100 μM % ([4]; at 100 μM (stated in cell instead of IC50)): 4.1 at %
IC50 [3]: 105 nM

CC[C@H](C)[C@@H]1NC(=O)[C@@H]2CCCN2C(=O)[C@H]2CCCN2C(=O)[C@H](CCCNC(=N)N)NC(=O)[C@@H]2CSSC[C@H](NC1=O)C(=O)N[C@@H]([C@@H](C)O)C(=O)N[C@@H](CCCCN)C(=O)N[C@@H](CO)C(=O)N[C@@H](CC(C)C)C(=O)N1CCC[C@H]1C(=O)N1CCC[C@H]1C(=O)N[C@@H](CCCNC(=N)N)C(=O)N2 [Ex. 185] (HELM PEPTIDE1{I.C.T.K.S.L.P.P.R.C.R.[dP].P}$PEPTIDE1,PEPTIDE1,2:R3-10:R3|PEPTIDE1,PEPTIDE1,1:R1-13:R2$$$V2.0)
IC50 [1]: 126 nM
IC50 [2]: 14 nM
IC50 [3]: 514 nM

CC[C@H](C)[C@@H]1NC(=O)[C@@H]2CCCN2C(=O)[C@@H]2CCCN2C(=O)[C@H](CC(=O)O)NC(=O)[C@H](CO)NC(=O)[C@H](CCCCN)NC(=O)[C@H]([C@@H](C)O)NC(=O)[C@@H]2CSSC[C@H](NC1=O)C(=O)N[C@@H](CO)C(=O)N[C@H](CC(=O)O)C(=O)N1CCC[C@H]1C(=O)N[C@@H](Cc1ccccc1)C(=O)N2 [Ex. 46] (HELM PEPTIDE1{F.C.T.K.S.D.P.P.I.C.S.[dD].P}$PEPTIDE1,PEPTIDE1,2:R3-10:R3|PEPTIDE1,PEPTIDE1,1:R1-13:R2$$$V2.0)
Tryptase at 100 μM % ([2]; at 100 μM): 44.1%

CC[C@H](C)[C@@H]1NC(=O)[C@@H]2CCCN2C(=O)[C@@H]2CCCN2C(=O)[C@H](CC(=O)O)NC(=O)[C@H](CO)NC(=O)[C@H](CCCCN)NC(=O)[C@H]([C@@H](C)O)NC(=O)[C@@H]2CSSC[C@H](NC1=O)C(=O)N[C@@H](CO)C(=O)N1CCC[C@@H]1C(=O)N[C@@H](CC(C)C)C(=O)N[C@@H](Cc1ccccc1)C(=O)N2 [Ex. 74] (HELM PEPTIDE1{C.S.[dP].L.F.C.T.K.S.D.P.P.I}$PEPTIDE1,PEPTIDE1,1:R3-6:R3|PEPTIDE1,PEPTIDE1,1:R1-13:R2$$$V2.0)
Trypsin at 100 μM % [1]: 86%

C[C@@H](O)[C@@H]1NC(=O)[C@@H]2CSSC[C@H](NC(=O)[C@H](CC3CCCCC3)NC(=O)[C@@H]3CCCN3C(=O)[C@@H]3CCCN3C(=O)[C@H](CC(=O)O)NC(=O)[C@H](CO)NC(=O)[C@H](CCCCN)NC1=O)C(=O)N[C@@H](Cc1ccc(O)cc1)C(=O)N1CCC[C@@H]1C(=O)N1CCC[C@H]1C(=O)N[C@@H](C1CCCCC1)C(=O)N2 [Ex. 66] (HELM PEPTIDE1{[O=C([C@@H](N[*:1])C1CCCCC1)[*:2]].C.T.K.S.D.P.P.[Cha].C.Y.[dP].P}$PEPTIDE1,PEPTIDE1,2:R3-10:R3|PEPTIDE1,PEPTIDE1,1:R1-13:R2$$$V2.0)
IC50 [3]: 48 nM

CC[C@H](C)[C@@H]1NC(=O)[C@@H]2CCCN2C(=O)[C@@H]2CCCN2C(=O)[C@H](CC(=O)O)NC(=O)[C@H](CO)NC(=O)[C@H](CCCCN)NC(=O)[C@H]([C@@H](C)O)NC(=O)[C@@H]2CSSC[C@H](NC1=O)C(=O)N[C@@H](CC(=O)O)C(=O)N1CCC[C@@H]1C(=O)N1CCC[C@H]1C(=O)N[C@@H](CCc1ccccc1)C(=O)N2 [Ex. 29] (HELM PEPTIDE1{[O=C([C@H](CCc1ccccc1)N[*:1])[*:2]].C.T.K.S.D.P.P.I.C.D.[dP].P}$PEPTIDE1,PEPTIDE1,2:R3-10:R3|PEPTIDE1,PEPTIDE1,1:R1-13:R2$$$V2.0)
IC50 [3]: 42 nM

CC[C@H](C)[C@@H]1NC(=O)[C@@H]2CCCN2C(=O)[C@@H]2CCCN2C(=O)[C@H](CC(=O)O)NC(=O)[C@H](CO)NC(=O)[C@H](CCCCN)NC(=O)[C@H]([C@@H](C)O)NC(=O)[C@@H]2CSSC[C@H](NC1=O)C(=O)N[C@@H](CO)C(=O)N[C@H](CC(N)=O)C(=O)N1CCC[C@H]1C(=O)N[C@@H](Cc1ccccc1)C(=O)N2 [Ex. 69] (HELM PEPTIDE1{C.S.[dN].P.F.C.T.K.S.D.P.P.I}$PEPTIDE1,PEPTIDE1,1:R3-6:R3|PEPTIDE1,PEPTIDE1,1:R1-13:R2$$$V2.0)
IC50 [3]: 68 nM

CC[C@H](C)[C@@H]1NC(=O)[C@@H]2CCCN2C(=O)[C@@H]2CCCN2C(=O)[C@H](CC(=O)O)NC(=O)[C@H](CO)NC(=O)[C@H](CCCCN)NC(=O)[C@H]([C@@H](C)O)NC(=O)[C@@H]2CSSC[C@H](NC1=O)C(=O)N[C@@H](CC(=O)O)C(=O)N1CCC[C@@H]1C(=O)N1CCC[C@H]1C(=O)N[C@@H](CC1CCCCC1)C(=O)N2 [Ex. 35] (HELM PEPTIDE1{[Cha].C.T.K.S.D.P.P.I.C.D.[dP].P}$PEPTIDE1,PEPTIDE1,2:R3-10:R3|PEPTIDE1,PEPTIDE1,1:R1-13:R2$$$V2.0)
IC50 [3]: 54 nM

Reference: patent publication US8658604B2, “Template-fixed beta-hairpin peptidomimetics with protease inhibitory activity” (Polyphor Ltd, priority 2005, dated 2014)
